* marks the point of attachment. NOTA = O=C(O)CN1CCN(CC(=O)O)CCN(CC(=O)*)CC1
Target: T1, granzyme B (Mus musculus, UniProt P04187)
T1 construct: from tissue; host or cells: intracranial GSC005-luc tumour in C57BL/6 mice; granzyme B comes from the host's cytotoxic immune cells
T1 sequence (P04187 21-247): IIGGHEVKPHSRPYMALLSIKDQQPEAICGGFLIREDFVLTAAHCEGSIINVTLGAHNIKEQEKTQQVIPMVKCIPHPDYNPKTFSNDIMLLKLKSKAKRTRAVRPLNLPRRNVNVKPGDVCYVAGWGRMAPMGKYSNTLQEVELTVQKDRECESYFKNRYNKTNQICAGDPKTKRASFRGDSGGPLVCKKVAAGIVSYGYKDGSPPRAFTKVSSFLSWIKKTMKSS
Type: in vivo, mouse (C57BL/6, orthotopic GSC005-luc GBM)
Description: Dynamic [^64Cu]-NOTA-GZP PET was collected using a preclinical small animal PET/CT imaging system (GNEXT, Sofie Bioscience, Culver City, CA) seven days from the start of therapy. Scan consisted of an 80-min list-mode acquisition, with 100 ± 10 μCi (3.7 ± 0.37 MBq) of [^64Cu]-NOTA-GZP being administered via tail-vein catheter followed by a saline flush. Subsequently, a 5-min computed tomography (CT, voltage, 80 kVp; current, 150 μA) scan was collected for anatomical reference. A subset of mice (N = 5 treatment, 3 controls) was humanely euthanized, and brains were excised for a 1 h ex vivo PET/CT brain scan and, upon completion, placed in formalin and fixed overnight. Remaining mice were monitored longitudinally for survival.
Dynamic PET data was reconstructed using a 3D ordered-subset expectation maximization algorithm (24 subsets, 3 iterations) with a reconstructed voxel size of 0.5 × 0.5 × 0.5 mm^3 based on a 12 × 10 s, 6 × 30 s, 5 × 60 s, 10 × 300 s, 1 × 1200 s framing sequence (Figure 2A). PET sequences were rigidly registered to the reference anatomical CT scan. Voxel-wise conversion to standardized uptake value (SUV) was then performed based on the following equation:
GSC005-luc orthotopic mouse models were developed and treated with single dose M002 followed by a dose of anti-PD1 on days 1, 4 and 7 (N = 22), or saline at similar timepoints (N = 9). 80-min dynamic [^64Cu]-NOTA-GZP PET/CT scans were performed at day 4 and 7 following treatment, with tumor and contralateral brain time activity curves being fitted to a 2TCM as selected based on prior comparative assessment. Metrics for average SUV, k1, k2, k3 and k4 were quantified on the tumor region with additional normalization to contralateral healthy brain (TBR).
In addition, anatomical MRI scans were collected prior to the start of treatment (D-1), and at days 3, 6 and 13 following treatment for anatomical PET/CT reference and monitoring of tumor volumes. Longitudinal monitoring was performed via BLI every three days. […] Response was defined based on a threshold of less than 20% increase in BLI signal one month following initial immunotherapy administration as previously reported.

{NOTA}-AGGIEFD-aldehyde [[^64Cu]-NOTA-GZP, NOTA-Ala-Gly-Gly-Ile-Glu-Phe-Asp-CHO (NOTA-GZP) radiolabeled with ^64Cu; granzyme B specific PET imaging agent]
k3 (tracer binding rate), contralateral brain (2TCM, combination immunotherapy-treated mice, four days following therapy, contralateral brain): 0.04 ± 0.05 min⁻¹
k3 (tracer binding rate), tumor (2TCM, combination immunotherapy-treated mice, four days following therapy, tumor): 0.13 ± 0.8 min⁻¹
SUV TBR (mouse, in vivo): 2.50 ± 1.68
k1 TBR (mouse, in vivo): 1.18 ± 0.75

From article PMC12775653, “Quantitative dynamic granzyme B PET imaging to characterize novel combination immunotherapy response in preclinical glioblastoma models” (Theranostics, 2026)
